In patent US10947213B1 (Merck Patent GmbH, priority 2015, dated 2021):
Where a name gives a salt, the structure may show the parent alone.

These compounds were tested against T1, TLR7/NFKb HEK cells (Homo sapiens, UniProt Q9NYK1) (assay: HEK Cell Assay (TLR7/NFKb reporter, Steady-Glo luciferase readout)). Conditions: 30 min compound preincubation, then R*48 agonist for 5 hours, read-out: Potency.
T1 construct: expressed in transfected cells; host or cells: HEK cells (TLR7/NFKb reporter line)
T1 sequence (Q9NYK1 27-1049): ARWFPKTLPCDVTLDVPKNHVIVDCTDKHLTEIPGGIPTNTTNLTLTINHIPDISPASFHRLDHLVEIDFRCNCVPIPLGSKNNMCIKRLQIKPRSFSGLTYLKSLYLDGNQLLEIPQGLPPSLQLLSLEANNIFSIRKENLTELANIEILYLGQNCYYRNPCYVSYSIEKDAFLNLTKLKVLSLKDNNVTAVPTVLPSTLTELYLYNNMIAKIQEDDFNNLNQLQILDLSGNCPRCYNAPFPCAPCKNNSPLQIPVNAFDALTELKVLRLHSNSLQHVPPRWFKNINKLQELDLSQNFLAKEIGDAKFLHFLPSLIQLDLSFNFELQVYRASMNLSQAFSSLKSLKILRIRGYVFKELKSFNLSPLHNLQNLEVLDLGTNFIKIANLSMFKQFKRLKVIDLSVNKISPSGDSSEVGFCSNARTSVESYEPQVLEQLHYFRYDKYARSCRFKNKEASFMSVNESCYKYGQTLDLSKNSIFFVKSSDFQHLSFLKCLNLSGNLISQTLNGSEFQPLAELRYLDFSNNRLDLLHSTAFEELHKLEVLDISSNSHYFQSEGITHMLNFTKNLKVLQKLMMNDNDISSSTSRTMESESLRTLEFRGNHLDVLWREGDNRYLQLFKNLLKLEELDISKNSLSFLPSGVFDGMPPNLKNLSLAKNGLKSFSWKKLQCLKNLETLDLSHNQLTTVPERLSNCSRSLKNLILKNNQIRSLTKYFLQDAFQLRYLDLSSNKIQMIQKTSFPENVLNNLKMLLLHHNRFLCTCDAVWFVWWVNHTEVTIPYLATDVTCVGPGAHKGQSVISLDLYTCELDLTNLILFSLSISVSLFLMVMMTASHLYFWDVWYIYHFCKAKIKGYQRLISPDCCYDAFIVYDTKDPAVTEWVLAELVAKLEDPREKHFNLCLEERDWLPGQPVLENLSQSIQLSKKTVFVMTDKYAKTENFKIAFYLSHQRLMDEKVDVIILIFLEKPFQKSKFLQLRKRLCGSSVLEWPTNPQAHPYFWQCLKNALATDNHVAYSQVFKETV
Format: cell-based
Procedure, shortened: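 Steady-Glo luminescence after 5 h stimulation with R*48 agonist, following 30 min compound preincubation. Assay run in HEK cells carrying a TLR7/NFKb luciferase reporter, plated at 5000 cells/well and grown 24 h at 37° C (10% CO2) before treatment.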

IC50 [µM]	Structure (SMILES)
< 1	C[C@H]1C[C@@H](NC2CCNC2=O)CN(c2ccc(C#N)c3nccnc23)C1 (stereo partly drawn) [Compound 123, 8-[(3S,5R)-3-methyl-5-[(2-oxopyrrolidin-3-yl)amino]piperidin-1-yl]quinoxaline-5-carbonitrile]
> 10	C[C@H]1C[C@@H](NC2CCN(C)C2=O)CN(c2ccnc3nccnc23)C1 (stereo partly drawn) [Compound 126, 1-methyl-3-[[(3R,5S)-5-methyl-1-[pyrido[2,3-b]pyrazin-8-yl]piperidin-3-yl]amino]pyrrolidin-2-one]
> 10	C[C@H]1C[C@@H](NC2CCNC2=O)CN(c2ccnc3nccnc23)C1 (stereo partly drawn) [Compound 127, 3-[[(3R,5S)-5-methyl-1-[pyrido[2,3-b]pyrazin-8-yl]piperidin-3-yl]amino]pyrrolidin-2-one]
> 10	C[C@H]1C[C@@H](NC(=O)C2(N)COC2)CN(c2ccnc3nccnc23)C1 [Compound 128, 3-amino-N-[(3R,5S)-5-methyl-1-[pyrido[2,3-b]pyrazin-8-yl]piperidin-3-yl]oxetane-3-carboxamide]
1 to 10	C[C@H]1C[C@@H](NC(=O)C2(N)COC2)CN(c2ccc(C#N)c3nccnc23)C1 [Compound 129, 3-amino-N-[(3R,5S)-1-(8-cyanoquinoxalin-5-yl)-5-methylpiperidin-3-yl]oxetane-3-carboxamide]
< 1	C[C@H]1C[C@@H](NC(=O)Cc2c[nH]cn2)CN(c2ccc(C#N)c3nccnc23)C1 [Compound 130, N-[(3R,5S)-1-(8-cyanoquinoxalin-5-yl)-5-methylpiperidin-3-yl]-2-(1H-imidazol-4-yl)acetamide hydrochloride]
> 10	C[C@H]1C[C@@H](NC(=O)Cc2c[nH]cn2)CN(c2ccnc3nccnc23)C1 [Compound 131, 2-(1H-imidazol-4-yl)-N-[(3R,5S)-5-methyl-1-[pyrido[2,3-b]pyrazin-8-yl]piperidin-3-yl]acetamide]
< 1	C[C@H]1C[C@@H](NC(=O)Cc2cn(C)cn2)CN(c2ccc(C#N)c3nccnc23)C1 [Compound 132, N-[(3R,5S)-1-(8-cyanoquinoxalin-5-yl)-5-methylpiperidin-3-yl]-2-(1-methyl-1H-imidazol-4-yl)acetamide]
> 10	C[C@H]1C[C@@H](NC(=O)Cc2cn(C)cn2)CN(c2ccnc3nccnc23)C1 [Compound 133, N-[(3R,5S)-5-methyl-1-[pyrido[2,3-b]pyrazin-8-yl]piperidin-3-yl]-2-(1-methyl-1H-imidazol-4-yl)acetamide]
1 to 10	COCC(=O)N[C@@H]1C[C@H](C)CN(c2ccc(C#N)c3nccnc23)C1 [Compound 134, N-[(3R,5S)-1-(8-cyanoquinoxalin-5-yl)-5-methylpiperidin-3-yl]-2-methoxyacetamide]
< 1	C[C@H]1C[C@@H](NC2COC2)CN(c2ccc(C#N)c3nccnc23)C1 [Compound 137, 8-[(3S,5R)-3-methyl-5-[(oxetan-3-yl)amino]piperidin-1-yl]quinoxaline-5-carbonitrile]
< 1	C[C@H]1C[C@@H](NC2CCOC2)CN(c2ccc(C#N)c3nccnc23)C1 (stereo partly drawn) [Compound 138, 8-[(3S,5R)-3-methyl-5-[(oxolan-3-yl)amino]piperidin-1-yl]quinoxaline-5-carbonitrile]
> 10	C[C@H]1C[C@@H](NC2CCOC2)CN(c2ccnc3nccnc23)C1 (stereo partly drawn) [Compound 139, (3R,5S)-5-methyl-N-(oxolan-3-yl)-1-[pyrido[2,3-b]pyrazin-8-yl]piperidin-3-amine]
< 1	C[C@H]1C[C@@H](NC(=O)CNS(C)(=O)=O)CN(c2ccc(C#N)c3nccnc23)C1 [Compound 140, N-[(3R,5S)-1-(8-cyanoquinoxalin-5-yl)-5-methylpiperidin-3-yl]-2-methanesulfonamidoacetamide]
> 10	C[C@H]1C[C@@H](NC(=O)CNS(C)(=O)=O)CN(c2ccnc3nccnc23)C1 [Compound 141, 2-methanesulfonamido-N-[(3R,5S)-5-methyl-1-[pyrido[2,3-b]pyrazin-8-yl]piperidin-3-yl]acetamide]
< 1	C[C@H]1C[C@@H](NC(=O)CNC(C)(C)C)CN(c2ccc(C#N)c3nccnc23)C1 [Compound 142, 2-(tert-butylamino)-N-[(3R,5S)-1-(8-cyanoquinoxalin-5-yl)-5-methylpiperidin-3-yl]acetamide]
> 10	C[C@H]1C[C@@H](NC(=O)CNC(C)(C)C)CN(c2ccnc3nccnc23)C1 [Compound 143, 2-(tert-butylamino)-N-[(3R,5S)-5-methyl-1-[pyrido[2,3-b]pyrazin-8-yl]piperidin-3-yl]acetamide]
< 1	C[C@H]1C[C@@H](NC(=O)CN(C)CCO)CN(c2ccc(C#N)c3nccnc23)C1 [Compound 144, N-[(3R,5S)-1-(8-cyanoquinoxalin-5-yl)-5-methylpiperidin-3-yl]-2-[(2-hydroxyethyl)(methyl)amino]acetamide]
> 10	C[C@H]1C[C@@H](NC(=O)CN(C)CCO)CN(c2ccnc3nccnc23)C1 [Compound 145, 2-[(2-hydroxyethyl)(methyl)amino]-N-[(3R,5S)-5-methyl-1-[pyrido[2,3-b]pyrazin-8-yl]piperidin-3-yl]acetamide]
1 to 10	C[C@H]1C[C@@H](NC(=O)C2(CO)CC2)CN(c2ccc(C#N)c3nccnc23)C1 [Compound 162, N-[(3R,5S)-1-(8-cyanoquinoxalin-5-yl)-5-methylpiperidin-3-yl]-1-(hydroxymethyl)cyclopropane-1-carboxamide]
< 1	C[C@H]1C[C@@H](NC(=O)C2CC2(F)F)CN(c2ccc(C#N)c3nccnc23)C1 (stereo partly drawn) [Compound 165, N-[(3R,5S)-1-(8-cyanoquinoxalin-5-yl)-5-methylpiperidin-3-yl]-2,2-difluorocyclopropane-1-carboxamide]
< 1	C[C@H]1C[C@@H](NC(=O)COCC2CCCO2)CN(c2ccc(C#N)c3nccnc23)C1 (stereo partly drawn) [Compound 166, N-[(3R,5S)-1-(8-cyanoquinoxalin-5-yl)-5-methylpiperidin-3-yl]-2-(oxolan-2-ylmethoxy)acetamide]
< 1	CC(C)C(C)C(=O)N[C@@H]1C[C@H](C)CN(c2ccc(C#N)c3nccnc23)C1 (stereo partly drawn) [Compound 167, N-[(3R,5S)-1-(8-cyanoquinoxalin-5-yl)-5-methylpiperidin-3-yl]-2,3-dimethylbutanamide]
> 10	CC(C)C(C)C(=O)N[C@@H]1C[C@H](C)CN(c2ccnc3nccnc23)C1 (stereo partly drawn) [Compound 168, 2,3-dimethyl-N-[(3R,5S)-5-methyl-1-[pyrido[2,3-b]pyrazin-8-yl]piperidin-3-yl]butanamide]
< 1	C[C@H]1C[C@@H](NC(=O)Cn2cccn2)CN(c2ccc(C#N)c3nccnc23)C1 [Compound 169, N-[(3R,5S)-1-(8-cyanoquinoxalin-5-yl)-5-methylpiperidin-3-yl]-2-(1H-pyrazol-1-yl)acetamide]
> 10	C[C@H]1C[C@@H](NC(=O)Cn2cccn2)CN(c2ccnc3nccnc23)C1 [Compound 170, N-[(3R,5S)-5-methyl-1-[pyrido[2,3-b]pyrazin-8-yl]piperidin-3-yl]-2-(1H-pyrazol-1-yl)acetamidw]
< 1	C[C@H]1C[C@@H](NC(=O)C2CCCN2C)CN(c2ccc(C#N)c3nccnc23)C1 (stereo partly drawn) [Compound 171, N-[(3R,5S)-1-(8-cyanoquinoxalin-5-yl)-5-methylpiperidin-3-yl]-1-methylpyrrolidine-2-carboxamide]
1 to 10	C[C@H]1C[C@@H](NC(=O)C2CCCN2C)CN(c2ccnc3nccnc23)C1 (stereo partly drawn) [Compound 172, Methyl-N-[(3R,5S)-5-methyl-1-[pyrido[2,3-b]pyrazin-8-yl]piperidin-3-yl]pyrrolidine-2-carboxamide]
< 1	C[C@H]1C[C@@H](N)CN(c2ccc(C(N)=O)c3ncccc23)C1 [Compound 180, 5-[(3R,5S)-3-amino-5-methylpiperidin-1-yl]quinoline-8-carboxamide]

Structure (SMILES)	IC50 [µM]
C[C@H]1C[C@@H](NC(=O)COC(C)(C)C)CN(c2ccc(C#N)c3nccnc23)C1 [Compound 163, 2-(tert-butoxy)-N-[(3R,5S)-1-(8-cyanoquinoxalin-5-yl)-5-methylpiperidin-3-yl]acetamide]	< 1
C[C@H]1C[C@@H](NC(=O)COC(C)(C)C)CN(c2ccnc3nccnc23)C1 [Compound 164, 2-(tert-butoxy)-N-[(3R,5S)-5-methyl-1-[pyrido[2,3-b]pyrazin-8-yl]piperidin-3-yl]acetamide]	> 10
